Measured values as given in patent publication US8026342B2, “Compositions and methods for binding sphingosine-1-phosphate” (Lpath, Inc., priority 2006, dated 2011).

B1: LT1002: murine anti-S1P monoclonal antibody, IgG1 kappa, from hybridoma clone 306D326.26 (antibody, listed as Mus sp., V domains shown)
VH: QAHLQQSDAELVKPGASVKISCKVSGFIFIDHTIHWMKQRPEQGLEWIGCISPRHDITKYNEMFRGKATLTADKSSTTAYIQVNSLTFEDSAVYFCARGGFYGSTIWFDFWGQGTTLTVS
VL: ETTVTQSPASLSMAIGEKVTIRCITTTDIDDDMNWFQQKPGEPPNLLISEGNILRPGVPSRFSSSGYGTDFLFTIENMLSEDVADYYCLQSDNLPFTFGSGTKLEIK

Columns and labels:
retinal macrophages = experiment: Oxygen induced retinopathy (ROP) model: retinal macrophage infiltration; type: in vivo, C57BL/6 mice; conditions: 5 μg intraocular at day 12, read at day 17
Method: At day 17 of life, the mice received an intraocular injection of FITC-labeled antibody to F4/80 (a pan-macrophage marker) and after 8 hours, mice were euthanized. The globes were removed and fixed in PBS-buffered formalin at room temperature for 5 hours. Retinas were dissected and washed with phosphate-buffered saline containing 0.25% Triton X-100 and whole mounted. Slides were viewed with a Nikon Fluorescence Microscope and retinal macrophages were quantified.

CNV lesions = experiment: CNV animal model of AMD, murine vs humanized mAbs (Example 17); type: in vivo, mice; conditions: for Percent inhibition of lesion size: 14 days post laser
Method: The humanized antibody variants and the murine antibody were compared for their ability to inhibit neo-vascularization in the CNV animal model of AMD as shown in FIG. 13. […] Mice were sacrificed 14 days post laser surgery. Control mice were treated with aqueous buffer (PBS) or an isotype-matched non-specific antibody. Three of the humanized variants inhibited angiogenesis essentially equivalently to the murine antibody as assessed by measurement of CNV area. CNV lesion volumes are represented as means±SEM.
For the induction of CNV, mice were anesthetized with a mixture of ketamine (14 mg/kg) and xylazine (30 mg/kg) in sterile saline administered intraperitoneally at a dose of 5 μL per 20 g of body weight. Their pupils were then dilated with one drop each of ophthalmic tropicamide (0.5%) and phenylephrine (2.5%). An argon green ophthalmic laser (Oculight GL 532 nm, Iridex Corporation, Mountain View, Calif.) coupled to a slit lamp set to deliver a 100 msec pulse at 150 mW with a 50 μm spot size will then be used to rupture Bruch's membrane in three quadrants of the right eye located approximately 50 μm from the optic disc at relative 9, 12 and 3 o'clock positions. The left eye served as uninjured control in all cases.
The morphometric and volumetric CNV lesions were measured as follows. Two weeks after laser induction of CNV, the animals were euthanized by overdose of ketamine-xylazine mixture, then undergo whole body perfusion via cardiac puncture with 6 ml 4% paraformaldehyde in PBS, pH 7.5, (fixative) as previously described (Sengupta et al., 2003). The eyes will then be enucleated, punctured with a 27 g needle 1 mm posterior to the limbus, and immersed in fixative for 1 hr at room temperature, then washed 2× by immersion in PBS for 30 min. The eyes will then be dissected to isolate the posterior segment consisting of the retinal pigment epithelium, the choriocapillaris and the sclera. This tissue was then permeabilized and reacted with rhodamine-conjugated R. communis agglutinin I (Vector Laboratories, Burlingame, Calif.) to detect the CNV lesion as previously described (Sengupta et al., 2003; Sengupta et al., 2005). […]
Captured digital images were evaluated morphometrically using ImageJ software (Research Services Branch, National Institutes of Health, Bethesda, Md.). Images were split into separate RGB channels for analysis of the red and green channels as follows: 1) a calibration for the specific objective and microscope was applied to set the pixel-to-length ratio; 2) a threshold was applied using the Otsu algorithm; 3) images will be made binary; 4) a region-of-interest (ROI) was outlined to include the entire lesion area; 5) a particle analysis was performed to quantify the pixel area above the threshold level within the ROI. […]

[1] = Thermochallenge stability of antibody variants (TM); type: physicochemical
Method: iii. Stability. The humanized variants were tested for stability after challenge at high temperature. The approximate midpoints of the thermal unfolding transitions (TM) were determined for every humanized variant by subjecting the supernatants to temperatures ranging from 60 to 74° C. […] The binding properties of each variant were determined before and after thermochallenge.

[2] = 0.5 ug intravitreal, Day 0 and Day 6

Molecule | # of macrophages per retina (retinal macrophages) | % reduction in macrophage density (retinal macrophages) | % reduction in macrophage density (retinal macrophages; listed as S1P antibody) | inhibition of neovascularization (CNV area/volume), qualitative (CNV lesions; [2]) | Percent inhibition of lesion size (CNV lesions; [2]) | inhibition compared to non-specific antibody control (CNV lesions; p<0.05) | TM (approximate midpoint of thermal unfolding transition) [1]
LT1009: humanized anti-S1P IgG1/kappa mAb with Cys to Ala in HCDR2, light chain with 5 backmutations; SEQ ID NO: 31/32 | 1136 ± 33 | 55% | 55.4 ± 1.3% | markedly suppressed neovascularization | ~99% | significant inhibition | 
B1 |  |  |  |  | approximately 80% |  | 65 °C
